Active and inactive are the calls of the source. The rule behind the calls is not given here.
Tests used:
A549 [1] = experiment: Inhibition of TGF-beta1-induced epithelial-mesenchymal transition in human A549 cells assessed as increase in E-cadherin gene expression at 2.5 to 3 uM for 2 hrs followed by TGF-beta1 stimulation for 24 hrs by qRT-PCR method; type: functional, cell-based
[2] = target: MAP kinase p38 (Homo sapiens) (UniProt O15264+Q15759+Q16539+P53778); experiment: Inhibition of TGF-beta1-induced p38 phosphorylation in human A549 cells at 2.5 to 3 uM for 2 hrs followed by TGF-beta1 stimulation for 24 hrs by Western blot method; type: cell-based
A549 [3] = experiment: Inhibition of TGF-beta1-induced MMP9 gene expression in human A549 cells at 2.5 to 3 uM for 2 hrs followed by TGF-beta1 stimulation for 24 hrs by qRT-PCR method; type: functional, cell-based
A549 [4] = experiment: Inhibition of TGF-beta1-induced cell migration in human A549 cells at 2.5 to 3 uM treated along with TGF-beta1 stimulation following cell layer cell layer scratching measured after 24 hrs; type: functional, cell-based
A549 [5] = experiment: Inhibition of TGF-beta1-induced epithelial-mesenchymal transition in human A549 cells assessed as reduction in TGFbetaR1 gene expression at 2.5 to 3 uM for 2 hrs followed by TGF-beta1 stimulation for 24 hrs by qRT-PCR method; type: functional, cell-based
A549 [6] = experiment: Inhibition of TGF-beta1-induced epithelial-mesenchymal transition in human A549 cells assessed as reduction in SNAI2 gene expression at 2.5 to 3 uM for 2 hrs followed by TGF-beta1 stimulation for 24 hrs by qRT-PCR method; type: functional, cell-based
A549 [7] = experiment: Inhibition of TGF-beta1-induced epithelial-mesenchymal transition in human A549 cells assessed as reduction in Snail protein expression at 2.5 to 3 uM for 2 hrs followed by TGF-beta1 stimulation for 24 hrs by Western blot method; type: functional, cell-based
A549 [8] = experiment: Antiproliferative activity against human A549 cells assessed as cell survival rate at 0.5 uM incubated for 24 hrs by CCK8 assay; type: functional; conditions: A549, 24 h, read-out: Survival
A549 [9] = experiment: Inhibition of TGF-beta1-induced MMP2 gene expression in human A549 cells at 2.5 to 3 uM for 2 hrs followed by TGF-beta1 stimulation for 24 hrs by qRT-PCR method; type: functional, cell-based
A549 [10] = experiment: Inhibition of TGF-beta1-induced epithelial-mesenchymal transition in human A549 cells assessed as reduction in Snail gene expression at 2.5 to 3 uM for 2 hrs followed by TGF-beta1 stimulation for 24 hrs by qRT-PCR method; type: functional, cell-based
A549 [11] = experiment: Antiproliferative activity against human A549 cells assessed as cell survival rate at 1 uM incubated for 24 hrs by CCK8 assay; type: functional; conditions: A549, 24 h, read-out: Survival
[12] = target: Mothers against decapentaplegic homolog 2 (Homo sapiens) (UniProt Q15796); experiment: Inhibition of TGF-beta1-induced Smad2 phosphorylation in human A549 cells at 2.5 to 3 uM for 2 hrs followed by TGF-beta1 stimulation for 24 hrs by Western blot method; type: cell-based
Sequence of Mothers against decapentaplegic homolog 2 (Homo sapiens) (Q15796 whole entry): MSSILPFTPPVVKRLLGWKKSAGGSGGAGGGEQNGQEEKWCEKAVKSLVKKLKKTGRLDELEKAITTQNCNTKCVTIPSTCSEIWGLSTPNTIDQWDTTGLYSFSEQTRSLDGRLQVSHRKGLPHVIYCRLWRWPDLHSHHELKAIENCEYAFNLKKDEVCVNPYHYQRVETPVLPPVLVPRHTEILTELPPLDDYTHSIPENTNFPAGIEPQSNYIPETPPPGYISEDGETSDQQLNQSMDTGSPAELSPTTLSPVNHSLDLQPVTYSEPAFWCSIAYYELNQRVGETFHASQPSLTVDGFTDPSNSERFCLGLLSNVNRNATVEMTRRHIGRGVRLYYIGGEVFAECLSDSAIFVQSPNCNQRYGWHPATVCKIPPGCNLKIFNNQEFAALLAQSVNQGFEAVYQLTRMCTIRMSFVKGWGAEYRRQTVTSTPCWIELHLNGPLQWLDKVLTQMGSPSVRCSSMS

A549 [13] = experiment: Inhibition of TGF-beta1-induced epithelial-mesenchymal transition in human A549 cells assessed as reduction in vimentin gene expression at 2.5 to 3 uM for 2 hrs followed by TGF-beta1 stimulation for 24 hrs by qRT-PCR method; type: functional, cell-based
A549 [14] = experiment: Inhibition of TGF-beta1-induced epithelial-mesenchymal transition in human A549 cells assessed as reduction in Smad2 gene expression at 2.5 to 3 uM for 2 hrs followed by TGF-beta1 stimulation for 24 hrs by qRT-PCR method; type: functional, cell-based
A549 [15] = experiment: Inhibition of TGF-beta1-induced epithelial-mesenchymal transition in human A549 cells assessed as reduction in N-cadherin gene expression at 2.5 to 3 uM for 2 hrs followed by TGF-beta1 stimulation for 24 hrs by qRT-PCR method; type: functional, cell-based
A549 [16] = experiment: Inhibition of TGF-beta1-induced epithelial-mesenchymal transition in human A549 cells assessed as reduction in TGFbeta gene expression at 2.5 to 3 uM for 2 hrs followed by TGF-beta1 stimulation for 24 hrs by qRT-PCR method; type: functional, cell-based
[17] = target: 72 kDa type IV collagenase (Homo sapiens) (UniProt P08253); experiment: Inhibition of TGF-beta1-induced MMP2 activity in human A549 cells at 2.5 to 3 uM for 2 hrs followed by TGF-beta1 stimulation for 24 hrs by gelatin zymography; type: cell-based
Sequence of 72 kDa type IV collagenase (Homo sapiens) (P08253 110-660 limits assumed): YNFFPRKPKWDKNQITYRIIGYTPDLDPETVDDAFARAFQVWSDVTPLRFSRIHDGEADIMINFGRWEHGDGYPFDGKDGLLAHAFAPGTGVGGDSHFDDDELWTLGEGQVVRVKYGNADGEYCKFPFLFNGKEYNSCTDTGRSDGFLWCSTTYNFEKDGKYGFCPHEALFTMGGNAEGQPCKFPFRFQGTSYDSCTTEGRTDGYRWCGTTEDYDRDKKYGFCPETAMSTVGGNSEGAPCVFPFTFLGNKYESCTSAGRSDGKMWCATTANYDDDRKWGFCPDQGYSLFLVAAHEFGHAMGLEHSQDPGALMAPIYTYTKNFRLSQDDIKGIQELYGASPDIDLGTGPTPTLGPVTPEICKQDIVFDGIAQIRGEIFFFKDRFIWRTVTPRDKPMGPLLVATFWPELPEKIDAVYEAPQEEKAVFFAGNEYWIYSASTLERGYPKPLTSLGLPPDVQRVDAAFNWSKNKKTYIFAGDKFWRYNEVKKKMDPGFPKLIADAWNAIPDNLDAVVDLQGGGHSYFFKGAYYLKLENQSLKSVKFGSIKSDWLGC

A549 [18] = experiment: Inhibition of TGF-beta1-induced cell invasion in human A549 cells at 2.5 to 3 uM measured after 48 hrs by Matrigel invasion assay; type: functional, cell-based
A549 [19] = experiment: Antiproliferative activity against human A549 cells assessed as inhibition of cell growth at 4 uM incubated for 24 to 48 hrs by CCK8 assay; type: functional, cell-based
[20] = target: Matrix metalloproteinase-9 (Homo sapiens) (UniProt P14780); experiment: Inhibition of TGF-beta1-induced MMP9 activity in human A549 cells at 2.5 to 3 uM for 2 hrs followed by TGF-beta1 stimulation for 24 hrs by gelatin zymography; type: cell-based
Sequence of Matrix metalloproteinase-9 (Homo sapiens) (P14780 whole entry): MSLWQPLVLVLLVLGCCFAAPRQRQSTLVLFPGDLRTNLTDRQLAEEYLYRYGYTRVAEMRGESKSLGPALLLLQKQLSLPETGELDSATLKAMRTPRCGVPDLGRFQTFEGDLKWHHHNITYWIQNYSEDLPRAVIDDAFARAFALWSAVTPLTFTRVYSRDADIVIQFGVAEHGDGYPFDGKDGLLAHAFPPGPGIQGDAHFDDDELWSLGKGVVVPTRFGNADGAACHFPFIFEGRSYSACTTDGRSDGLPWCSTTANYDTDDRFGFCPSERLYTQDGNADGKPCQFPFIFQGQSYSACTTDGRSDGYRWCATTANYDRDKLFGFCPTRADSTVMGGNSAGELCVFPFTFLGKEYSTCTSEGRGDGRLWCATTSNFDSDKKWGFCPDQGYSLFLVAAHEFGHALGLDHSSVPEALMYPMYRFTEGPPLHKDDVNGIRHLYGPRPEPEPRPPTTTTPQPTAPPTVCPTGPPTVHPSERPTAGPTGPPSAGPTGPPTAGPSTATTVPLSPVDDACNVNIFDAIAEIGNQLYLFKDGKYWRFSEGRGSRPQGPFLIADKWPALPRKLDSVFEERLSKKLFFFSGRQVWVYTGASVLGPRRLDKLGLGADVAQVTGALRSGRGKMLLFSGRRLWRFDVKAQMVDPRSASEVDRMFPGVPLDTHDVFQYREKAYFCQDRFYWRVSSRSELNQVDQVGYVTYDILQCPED

A549 [21] = experiment: Inhibition of TGF-beta1-induced epithelial-mesenchymal transition in human A549 cells assessed as decrease in N-cadherin expression pre-incubated for 2 hrs at 2.5 to 3 uM for 2 hrs followed by TGF-beta1 stimulation for 24 hrs by Western blot method; type: functional, cell-based
A549 [22] = experiment: Inhibition of TGF-beta1-induced epithelial-mesenchymal transition in human A549 cells assessed as increase in E-cadherin expression pre-incubated for 2 hrs at 2.5 to 3 uM for 2 hrs followed by TGF-beta1 stimulation for 24 hrs by Western blot method; type: functional, cell-based
A549 [23] = experiment: Antiproliferative activity against human A549 cells assessed as cell survival rate at 2.5 uM incubated for 24 hrs by CCK8 assay; type: functional; conditions: A549, 24 h, read-out: Survival
A549 [24] = experiment: Antiproliferative activity against human A549 cells assessed as cell survival rate at 3 uM incubated for 24 hrs by CCK8 assay; type: functional; conditions: A549, 24 h, read-out: Survival
A549 [25] = experiment: Inhibition of TGF-beta1-induced epithelial-mesenchymal transition in human A549 cells assessed as suppression of cell elongation and spindle like shapes pre-incubated for 2 hrs at 2.5 to 3 uM for 2 hrs followed by TGF-beta1 stimulation for 24 hrs; type: functional, cell-based
A549 [26] = experiment: Antiproliferative activity against human A549 cells assessed as cell survival rate at 2 uM incubated for 24 hrs by CCK8 assay; type: functional; conditions: A549, 24 h, read-out: Survival

In the case of `C[C@@H]1CC[C@@]2(OC1)O[C@H]1C[C@H]3[C@@H]4CC=C5C[C@@H](O[C@@H]6O[C@H](CO)[C@@H](O[C@@H]7O[C@@H](C)[C@H](O)[C@@H](O)[C@H]7O)[C@H](O)[C@H]6O[C@@H]6O[C@@H](C)[C@H](O)[C@@H](O)[C@H]6O)CC[C@]5(C)[C@H]4CC[C@]3(C)[C@H]1[C@@H]2C` [DIOSCIN], the inhibition (A549 [1]) is reported as “Dose-dependent effect”, the inhibition [2] is reported as “Active” and the inhibition (A549 [3]) is reported as “Dose-dependent effect”. The inhibition (A549 [4]) was “Dose-dependent effect”, the inhibition (A549 [5]) was “Dose-dependent effect” and the inhibition (A549 [6]) was “Dose-dependent effect”. For the same compound, the inhibition (A549 [7]) was “Dose-dependent effect”, the viability at 0.5 µM (A549 [8]) was > 80% and the inhibition (A549 [9]) was “Dose-dependent effect”. For the same compound, the inhibition (A549 [10]) was “Dose-dependent effect”, the viability at 1 µM (A549 [11]) was > 80% and the inhibition [12] was “Dose-dependent effect”. The inhibition (A549 [13]) was “Dose-dependent effect”, the inhibition (A549 [14]) was “Dose-dependent effect” and the inhibition (A549 [15]) was “Dose-dependent effect”. For the same compound, the inhibition (A549 [16]) was “Dose-dependent effect”, the inhibition [17] was “Active” and the inhibition (A549 [18]) was “Active”. For the same compound, the “growth inhibition (GI)” value (A549 [19]) was “Active”, the inhibition [20] was “Active” and the inhibition (A549 [21]) was “Active”. The inhibition (A549 [22]) was “Active”, the viability at 2.5 µM (A549 [23]) was > 80% and the viability at 3 µM (A549 [24]) was > 80%. The inhibition (A549 [25]) was “Active” and the viability at 2 µM (A549 [26]) was > 80%.

— ChEMBL document CHEMBL4033741, “Dioscin suppresses TGF-β1-induced epithelial-mesenchymal transition and suppresses A549 lung cancer migration and invasion” (2017)
